Square brackets hold non-standard residues; d marks the D form. Ends that are not written are not given here. * marks the point of attachment. Phe(4-NO2) = N[C@@H](Cc1ccc([N+](=O)[O-])cc1)C(=O)O; pNA = O=[N+]([O-])c1ccc(N*)cc1; Nle = CCCC[C@H](N)C(=O)O
Assays:
Assay type in all cases: biochemical
human pepsin II [1] = target: T1, human pepsin II (Homo sapiens, UniProt P20142); assay: Digestion of the substrate by human pepsin II, assay by HPLC (released H-Y-pNA); details: pepsin 909 ng/ml, substrate 0.5 mM, 37° C.
T1 sequence (P20142 60-388): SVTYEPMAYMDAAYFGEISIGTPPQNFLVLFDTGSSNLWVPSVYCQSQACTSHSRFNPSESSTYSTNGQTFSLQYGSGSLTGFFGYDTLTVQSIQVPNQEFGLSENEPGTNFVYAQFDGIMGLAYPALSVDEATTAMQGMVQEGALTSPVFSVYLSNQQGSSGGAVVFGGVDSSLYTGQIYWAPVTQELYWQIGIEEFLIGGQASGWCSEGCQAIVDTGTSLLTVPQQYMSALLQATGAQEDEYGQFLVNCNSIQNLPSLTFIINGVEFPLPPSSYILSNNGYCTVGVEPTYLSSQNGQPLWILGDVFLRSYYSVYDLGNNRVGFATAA
Protocol: (§1) Formic acid buffer or glycine buffer (pH2.0˜3.0) containing each peptide (0.5 mM) prepared in Example 1˜5 (a)
(§2) An aqueous solution of human pepsin I or human pepsin II (0.01 mg/ml)
(§3) Enzyme solution I (0.1 ml) was added to Reagent (1.0 ml). After incubation of the mixture at 37° C. for 10, 30, 60 minutes, the mixture solution (0.3 ml) was collected. To the collected solution, 2N—NaOH (0.025 ml) was added to terminate the reaction. After addition of 2N—HCl (0.025 ml) to the mixture, protein was removed by the ultrafiltration. The assaying H-Y-pNA (Nle-pNA: Example 1 and 2; Tyr-pNA: Example 3; Phe-pNA: Example 4; Phe(NO2)-pNA: Example 5) which was released after digesting by human pepsin in the obtained solution was carried out by HPLC using C18 column.
(§4) The ratio of pepsin I/pepsin II was calculated according to the result from assay by HPLC. Such assay is carried out to confirm that a substrate was digested by pepsin I or pepsin II correctly and that H-Y-pNA was released.

human pepsin I [2] = assay: Digestion of the substrate by human pepsin I, assay by HPLC (released H-Y-pNA); details: for ratio of relative activity of pepsin I/pepsin II: calculated according to the result from assay by HPLC; for Activitry of pepsin, Determination by HPLC, pepsin I: pepsin 909 ng/ml, substrate 0.5 mM, 37° C.
Protocol: as §1, §2, §3, §4

human pepsin I [3] = assay: Digestion of the substrate by human pepsin I, assay by coloring p-NA (aminopeptidase M, absorbance at 405 nm); details: substrate 0.5 mM, 37° C.
Protocol: as §1, §2
(§5) Aminopeptidase M (marketed from Beringer Manheim Co., derived from pig kidney) was dissolved into 1M Tris-HCl buffer (pH9.0) to be at concentration of 2U/I.
(§6) (2) Assay by Coloring p-NA
(§7) Enzyme solution I (0.1 ml) was added to Reagent (1.0 ml). After incubation of the mixture at 37° C. for 10 minutes, Enzyme solution II (0.05 ml) was added to the mixture solution (0.25 ml). After incubation of the mixture at 37° C. for 5 minutes, the increase in absorbance at 405 nm (Es) was determined. On the other hand, reagent blank value (E(BL)) was determined by the same procedure as above using purified water. According to the following, the increase in absorbance (E) was calculated.

human pepsin II [4] = target: T1, human pepsin II; assay: Digestion of the substrate by human pepsin II, assay by coloring p-NA (aminopeptidase M, absorbance at 405 nm); details: substrate 0.5 mM, 37° C.
Protocol: as §1, §2, §5, §6, §7

[5] = reaction pH 3.0, pepsin 909 ng/ml
[6] = reaction pH 2.0, pepsin 909 ng/ml

“LysProIleGluPheNle-pNA.2CF3COOH (KPIEF[Nle]-pNA; also: trifluoroacetate salt (2CF3COOH)) [Example 2]” was tested, and the “Activitry of pepsin, Determination by HPLC, pepsin II” value (shortened to “Activitry … by HPLC, pepsin II”) (human pepsin II [1]; reaction pH 3.0) was 0.37 μM/min · 909 ngEnz/ml, the “ratio of relative activity of pepsin I/pepsin II” value (human pepsin I [2]; reaction pH 3.0) was 23.2 and the “Activitry of pepsin, Determination by HPLC, pepsin I” value (human pepsin I [2]; reaction pH 3.0) was 8.6 μM/min · 909 ngEnz/ml. For the same substance, the “Activitry of pepsin, Determination by p-NA, pepsin I” value (human pepsin I [3]; [5]) was 716.7 mABS/10 min · 909 ngEnz/ml and the “Activitry of pepsin, Determination by p-NA, pepsin II” value (from here on “Activitry … by p-NA, pepsin II”) (human pepsin II [4]; [5]) was 30.8 mABS/10 min · 909 ngEnz/ml.

“LysProIleGluPhePhe-pNA -2CF3COOH (KPIEFF-pNA; also: trifluoroacetate salt (2CF3COOH)) [Example 4]” was tested, and the “Activitry … by HPLC, pepsin II” value (human pepsin II [1]; reaction pH 3.0) was 0.16 μM/min · 909 ngEnz/ml, the “ratio of relative activity of pepsin I/pepsin II” value (human pepsin I [2]; reaction pH 3.0) was 68.1 and the “Activitry of pepsin, Determination by HPLC, pepsin I” value (human pepsin I [2]; reaction pH 3.0) was 10.9 μM/min · 909 ngEnz/ml. For the same substance, the “Activitry of pepsin, Determination by p-NA, pepsin I” value (human pepsin I [3]; [5]) was 908.3 mABS/10 min · 909 ngEnz/ml and the “Activitry … by p-NA, pepsin II” value (human pepsin II [4]; [5]) was 13.3 mABS/10 min · 909 ngEnz/ml.

“N^α-AcLysProIleGlu-Phe(NO2)-Nle-pNA.CF3COOH (Ac-KPIE[Phe(4-NO2)][Nle]-pNA; also: TFA salt) [Example 5(a)]” was tested, and the “Activitry … by HPLC, pepsin II” value (human pepsin II [1]; reaction pH 2.0) was 0.69 μM/min · 909 ngEnz/ml, the “ratio of relative activity of pepsin I/pepsin II” value (human pepsin I [2]; reaction pH 2.0) was 52.8 and the “Activitry of pepsin, Determination by HPLC, pepsin I” value (human pepsin I [2]; reaction pH 2.0) was 36.4 μM/min · 909 ngEnz/ml. For the same substance, the “Activitry of pepsin, Determination by p-NA, pepsin I” value (human pepsin I [3]; [6]) was 3036.2 mABS/10 min · 909 ngEnz/ml and the “Activitry … by p-NA, pepsin II” value (human pepsin II [4]; [6]) was 57.3 mABS/10 min · 909 ngEnz/ml.

“LysProIleGluPheTyr-pNA.2CF3COOH (KPIEFY-pNA; also: TFA salt (2CF3COOH)) [Example 3]” was tested, and the “Activitry … by HPLC, pepsin II” value (human pepsin II [1]; reaction pH 2.0) was 0.37 μM/min · 909 ngEnz/ml, the “ratio of relative activity of pepsin I/pepsin II” value (human pepsin I [2]; reaction pH 2.0) was 46.2 and the “Activitry of pepsin, Determination by HPLC, pepsin I” value (human pepsin I [2]; reaction pH 2.0) was 17.1 μM/min · 909 ngEnz/ml. The “Activitry of pepsin, Determination by p-NA, pepsin I” value (human pepsin I [3]; [6]) was 1425.0 mABS/10 min · 909 ngEnz/ml and the “Activitry … by p-NA, pepsin II” value (human pepsin II [4]; [6]) was 30.8 mABS/10 min · 909 ngEnz/ml.

In the case of “N^α-Ac-LysProIleGluPheNle-pNA.CF3COOH (Ac-KPIEF[Nle]-pNA; also: TFA salt) [Example 1]”, the “Activitry … by HPLC, pepsin II” value (human pepsin II [1]; reaction pH 2.0) is reported as 0.55 μM/min · 909 ngEnz/ml, the “ratio of relative activity of pepsin I/pepsin II” value (human pepsin I [2]; reaction pH 2.0) is reported as 95.8 and the “Activitry of pepsin, Determination by HPLC, pepsin I” value (human pepsin I [2]; reaction pH 2.0) is reported as 52.7 μM/min · 909 ngEnz/ml. For the same substance, the “Activitry of pepsin, Determination by p-NA, pepsin I” value (human pepsin I [3]; [6]) was 4391.7 mABS/10 min · 909 ngEnz/ml and the “Activitry … by p-NA, pepsin II” value (human pepsin II [4]; [6]) was 45.8 mABS/10 min · 909 ngEnz/ml.

With “LysProIleGluPhePhe(NO2)-pNA.2CF3COOH (KPIEF[Phe(4-NO2)]-pNA; also: 2 TFA salt) [Example 5]” the “Activitry … by HPLC, pepsin II” value (human pepsin II [1]; reaction pH 3.0) was 0.07 μM/min · 909 ngEnz/ml, the “ratio of relative activity of pepsin I/pepsin II” value (human pepsin I [2]; reaction pH 3.0) was 17.1 and the “Activitry of pepsin, Determination by HPLC, pepsin I” value (human pepsin I [2]; reaction pH 3.0) was 1.2 μM/min · 909 ngEnz/ml. For the same substance, the “Activitry of pepsin, Determination by p-NA, pepsin I” value (human pepsin I [3]; [5]) was 100.0 mABS/10 min · 909 ngEnz/ml and the “Activitry … by p-NA, pepsin II” value (human pepsin II [4]; [5]) was 5.8 mABS/10 min · 909 ngEnz/ml.
